Results on 15 compounds are retold here after publication PMC9000570, “Thiazole/Thiadiazole/Benzothiazole Based Thiazolidin-4-One Derivatives as Potential Inhibitors of Main Protease of SARS-CoV-2” (Molecules, 2022).

One series concerns the target SARS-CoV-2 3CL protease (Severe acute respiratory syndrome coronavirus 2, UniProt P0DTD1). As to the kind of experiment: biochemical. The settings on record: for IC50: dose range 0.005 to 50 µM. The format is biochemical.
Series [1] concerns feline infectious peritonitis. The settings on record: upon treatment of FIP in cats; cited from earlier work.
A further series has as its system human normal MRC-5 cells. As to the kind of experiment: MTT cell viability assay. The format is cell-based. Conditions: 48 h.

On to “3-(5,6-dichlorobenzo[d]thiazol-2-yl)-2-(4-fluorophenyl)thiazolidin-4-one [a3]”, for which the “% Inhibition at 50 μM” value on SARS-CoV-2 3CL protease (50 μM compound) amounted to 0%. For the same compound, on SARS-CoV-2 3CL protease, the IC50 is above 50 µM.
On to `CC(C)CC(NC(=O)OCc1ccccc1)C(=O)NC(CC1CCNC1=O)C(O)S(=O)(=O)O` (stereo not drawn) [GC376], for which, in series [1], the side effects entry is “subcutaneous fibrosis, transient stinging at the injection sites, hair loss, and abnormal eruption of permanent teeth in juvenile cats”.
As to `O=C1CSC(c2c(F)cccc2F)N1c1nc2cccc(Cl)c2s1` (stereo not drawn) [a1], the inhibition at 50 µM against SARS-CoV-2 3CL protease (50 μM compound) was 0%. On SARS-CoV-2 3CL protease, this compound yielded a half-inhibitory concentration (IC50) above 50 µM.
In the case of `O=C1CSC(c2c(F)cccc2Cl)N1c1nc2cccc(Cl)c2s1` (stereo not drawn) [a2], the “inhibition of cellular viability” value in the series on human normal MRC-5 cells (MRC-5, 0.01 μM) is reported as 68.5%; in the series with human normal MRC-5 cells (MRC-5, 0.1 μM) it was 78.4%; in the series with human normal MRC-5 cells (MRC-5, 1 μM), 95.5%; with human normal MRC-5 cells (MRC-5, 10 μM), 100%. The compound further had an inhibition at 50 µM against SARS-CoV-2 3CL protease (50 μM compound) of 91.3%.
`O=C1CSC(c2ccc(F)cc2)N1c1nc2ccc(F)cc2s1` (stereo not drawn) [b1] had an inhibition at 50 µM at SARS-CoV-2 3CL protease (50 μM compound) of 0%. Moreover, the IC50 against SARS-CoV-2 3CL protease was above 50 µM.
Regarding `O=C1CSC(c2ccc(F)cc2)N1c1nc2ccc(Cl)cc2s1` (stereo not drawn) [c1], the “inhibition of cellular viability” value in the series on human normal MRC-5 cells (MRC-5, 0.01 μM) was 31.0%; in the series on human normal MRC-5 cells (MRC-5, 0.1 μM) it was 43,0%; in the series with human normal MRC-5 cells (MRC-5, 1 μM), 36.1%; in the series with human normal MRC-5 cells (MRC-5, 10 μM) it was 80.3%. Further, at SARS-CoV-2 3CL protease (50 μM compound), the inhibition at 50 µM is 88%. The compound further registered a half-inhibitory concentration (IC50) at SARS-CoV-2 3CL protease of 4.74 µM.
`O=C1CSC(c2ccc(O)cc2)N1c1nc2ccc(Cl)cc2s1` (stereo not drawn) [c5]: at SARS-CoV-2 3CL protease, the “inhibitory activity on main protease (in words)” value is “inactive” and the half-maximal inhibitory concentration (IC50) was above 50 µM. At SARS-CoV-2 3CL protease (50 μM compound), this compound returned an inhibition at 50 µM of 7.87%.
For `O=C1CSC(c2ccc(F)cc2)N1c1nc2c(Cl)cccc2s1` (stereo not drawn) [d1], the inhibition at 50 µM on SARS-CoV-2 3CL protease (50 μM compound) was determined as 6.72%. In addition, the IC50 against SARS-CoV-2 3CL protease is above 50 µM.
On to `COc1cccc2sc(N3C(=O)CSC3c3ccc([N+](=O)[O-])cc3)nc12` (stereo not drawn) [e2], for which 50 µM produced 31.3% inhibition on SARS-CoV-2 3CL protease (50 μM compound). Further, the 50% inhibitory concentration (IC50) against SARS-CoV-2 3CL protease is above 50 µM.
Regarding `O=C1CSC(c2ccc(F)cc2)N1c1nc2ccc(OC(F)(F)F)cc2s1` (stereo not drawn) [h6], at 50 µM the inhibition against SARS-CoV-2 3CL protease (50 μM compound) was 25.2%. Further, the IC50 on SARS-CoV-2 3CL protease was above 50 µM.
Taken in the same sequence, the figures for `O=C1CSC(c2ccc(Cl)cc2)N1c1nc2ccc(OC(F)(F)F)cc2s1` (stereo not drawn) [h8] were 3.04% and above 50 µM.
Consider `N#Cc1ccc2nc(N3C(=O)CSC3c3c(F)cccc3Cl)sc2c1` (stereo not drawn) [k3], for which the “inhibition of cellular viability” value in the series with human normal MRC-5 cells (MRC-5, 0.01 μM) was 57%; with human normal MRC-5 cells (MRC-5, 0.1 μM) it was 64%; in the series with human normal MRC-5 cells (MRC-5, 1 μM) it was 100%; in the series with human normal MRC-5 cells (MRC-5, 10 μM), 100%. Moreover, the inhibition at 50 µM against SARS-CoV-2 3CL protease (50 μM compound) turned out to be 100%. Further, at SARS-CoV-2 3CL protease, inhibition was half-maximal at 0.01 µM (IC50).
In turn, `O=C1CSC(c2c(F)cccc2Cl)N1c1nc2ccc(C34CC5CC(CC(C5)C3)C4)cc2s1` (stereo not drawn) [m2] came in with an inhibition at 50 µM against SARS-CoV-2 3CL protease (50 μM compound) of 2.79%. The same compound registered an IC50 against SARS-CoV-2 3CL protease above 50 µM.
Compound `O=C1CSC(c2ccc(Br)cc2)N1c1nc2ccc(C34CC5CC(CC(C5)C3)C4)cc2s1` (stereo not drawn) [m11, 3-(6-(adamantan-1-yl)benzo[d]thiazol-2-yl)-2-(4-bromophenyl)thiazolidin-4-one] displayed a melting point of 275 to 276 °C. Also, the “inhibition of cellular viability” value with human normal MRC-5 cells (MRC-5, 0.01 μM) is 65.0%. Besides, the “inhibition of cellular viability” value with human normal MRC-5 cells (MRC-5, 0.1 μM) is given as 81.3%. Besides, the “inhibition of cellular viability” value with human normal MRC-5 cells (MRC-5, 1 μM) amounted to 89.4%. Further, the “inhibition of cellular viability” value with human normal MRC-5 cells (MRC-5, 10 μM) is 100%. Moreover, at SARS-CoV-2 3CL protease, the “inhibitory activity on main protease (in words)” value is recorded as “moderate activity” and the 50% inhibitory concentration (IC50) is above 50 µM. This compound registered an inhibition at 50 µM at SARS-CoV-2 3CL protease (50 μM compound) of 45%.
For `Cc1cc(C23CC4CC(CC(C4)C2)C3)cc2sc(N3C(=O)CSC3c3c(F)cccc3F)nc12` (stereo not drawn) [n2], the “inhibition of cellular viability” value with human normal MRC-5 cells (MRC-5, 0.01 μM) is given as 20.8%; with human normal MRC-5 cells (MRC-5, 0.1 μM) it was 73.4%; in the series with human normal MRC-5 cells (MRC-5, 1 μM), 90.7%; with human normal MRC-5 cells (MRC-5, 10 μM), 100%. This compound displayed an inhibition at 50 µM on SARS-CoV-2 3CL protease (50 μM compound) of 100%. The same compound yielded an IC50 on SARS-CoV-2 3CL protease of 9.98 µM.
